Where two headings read alike, the source gives them in different places.
What was measured:
Format in all cases: in vivo
[1] = tested on: rice sheath blight strains; assay: Bactericidal activity test: resistance to rice sheath blight (live pot test); conditions: for pest or weed control at 400 µg/mL: Oryza sativa, 144 h
Method: Bactericidal activity test, the determination procedure is as follows: Test of resistance to rice sheath blight: Select uniformly growing rice seedlings and spray them on the leaves at the set concentration, set a water sprayring group as blank control, every treatment was repeated twice. After 24h, the rice seedlings were inoculated with rice sheath blight strains and placed at room temperature (25±4°C) for normal management after inoculation. The prevention and control effect was investigated by visual inspection 6 days after inoculation.

[2] = tested on: tobacco Mosaic virus (TMV); assay: Anti-TMV activity: live protection function; conditions: for TMV activity: compared with ribavirin; for inhibition at 500 µg/mL: Tobacco mosaic virus, read-out: Relative inhibition rate (%) Live protection function
Method: (§1) Determination of anti-tobacco Mosaic virus (TMV) activity by the following procedure:
(§2) The virus crude extract was centrifuged with polyethylene glycol at twice and refrigerated at 4°C for use. The absorbance of 260nm wavelength was determined by ultraviolet spectrophotometer, and the virus concentration was calculated according to the formula. Virus concentration(mg/ml) = (A260 × dilution ratio)(/E)^0.10 1cm^260nm . [formula]
(§3) After weighing, cryptolepine salt derivative, ningnanmycin and the original drug of ribavirin were dissolved in DMF to obtain 1×10^5µg/mL mother solution, and then diluted to the required concentration with 1‰ Tween 80 aqueous solution.
Select the 3-5 leaf stage of tobacco Xanthi nc with uniform growth, spray the whole plant, repeat each treatment 3 times, and set 1‰ Tween80 aqueous solution as control. 24h later, the leaf surface was coated with emery (500 mesh), the disease venom was dipped with a brush, and the whole leaf surface was gently rubbed twice along the direction of the branch pulse by using the brush, the leaf was supported by palm of hand, the virus concentration was 10µg/mL, and the leaf was washed by water after inoculation. After 3 days, the number of disease spots was recorded and the prevnetion and control effect was calculated.

[3] = tested on: tobacco Mosaic virus (TMV); assay: Anti-TMV activity: live treatment effect; conditions: for inhibition at 500 µg/mL: Tobacco mosaic virus, 72 h, read-out: Relative inhibition rate (%) Live treatment effect
Method: as §1, §2, §3
Select the 3-5 leaf stage of tobacco Xanthi nc with uniform growth, use a brush to vaccinate the virus in the whole leaf, the virus concentration is 10µg/mL, and the leaf was washed with running water after inoculation. After the leaves were dried, the whole plant was sprayed with test sample, repeated 3 times every treatment, and 1‰ Tween 80 aqueous solution was set as control. After 3 days, the number of disease spots was recorded and the prevnetion and control effect was calculated.

[4] = tested on: tobacco Mosaic virus (TMV); assay: Anti-TMV activity: living passivation activity test; conditions: for inhibition at 500 µg/mL: Tobacco mosaic virus, read-out: Relative inhibition rate (%) Living passivation activity test
Method: as §1, §2, §3
Select the 3-5 leaf stage of tobacco Xanthi nc with uniform growth, mix the test sample agent with the same volume of virus juice to passivate for 30min, friction inoculation, virus concentration 20µg/mL, the leaf was washed with running water after inoculation, repeat 3 times, set 1‰ Tween 80 aqueous solution as control. 3 days later, the number of disease spots was calculated. [formula]
Anti-tobacco Mosaic virus passivation activity test of all compounds was at a treatment dose of 500µg/mL. The positive control was the commercial anti-plant virus agent viriazole.

[5] = 500µg/mL, Table 4 (all three modes)
[6] = Treatment dose 500 mg/L, tobacco Xanthi nc sprayed 24h before inoculation, virus 10µg/mL, disease spots counted after 3 days
[7] = Treatment dose 500 mg/L, tobacco Xanthi nc inoculated (virus 10µg/mL), then sprayed, disease spots counted after 3 days
[8] = Treatment dose 500 mg/L, sample mixed with virus juice for 30min, then inoculated on tobacco Xanthi nc, virus 20µg/mL, 3 days
[9] = 400mg/L leaf spray on rice seedlings, inoculated after 24h, visual inspection 6 days after inoculation, read-out: Resistance to rice sheath blight (%)/400mg/L
[10] = read-out: Resistance to rice sheath blight (%)/400mg/L
[11] = read-out: bactericidal activity against rice sheath blight

SMILES: Cc1ccc(S(=O)(=O)n2c3ccc(I)cc3c3c2cc2ccccc2[n+]3C)cc1.[Cl-] [Example 7]
- Resistance to rice sheath blight (%)/400mg/L ([1]; 400mg/L leaf spray on rice seedlings, inoculated after 24h, visual inspection 6 days after inoculation): 40±0%
- TMV activity [2, 5]: better TMV activity than the ribavirin
- Relative inhibition rate (%) Live protection function [2, 6]: 44.5±0.4%
- Relative inhibition rate (%) Live treatment effect [3, 7]: 43.0±3.5%
- Relative inhibition rate (%) Living passivation activity test [4, 8]: 47.7±3.1%

SMILES: CCCNc1c2ccccc2[n+](C)c2c1[nH]c1ccccc12 [Example 23]
- pest or weed control at 400 µg/mL [1, 9]: 30%
- inhibition at 500 µg/mL [2]: 33 ± 2.9%
- inhibition at 500 µg/mL [3]: 30.1 ± 1%
- inhibition at 500 µg/mL [4]: 35.2 ± 1.1%

SMILES: CN1CCC(CNc2c3ccccc3[n+](C)c3c2[nH]c2ccccc23)CC1 [Example 45]
- pest or weed control at 400 µg/mL [1, 9]: 30%
- inhibition at 500 µg/mL [2]: 30.7 ± 2.6%
- inhibition at 500 µg/mL [3]: 28.1 ± 0.3%
- inhibition at 500 µg/mL [4]: 25.6 ± 1.1%

SMILES: Cc1ccc(S(=O)(=O)n2c3ccccc3c3c2cc2cc(C(F)(F)F)ccc2[n+]3C)cc1 [Example 14]
- pest or weed control at 400 µg/mL [1, 10]: 60%
- pest or weed control at 400 µg/mL [1, 11]: > 50%
- inhibition at 500 µg/mL [2]: 15.3 ± 1.2%
- inhibition at 500 µg/mL [3]: 18.9 ± 1.2%
- inhibition at 500 µg/mL [4]: 20.1 ± 1.5%

SMILES: NC(=O)c1ncn([C@@H]2O[C@H](CO)[C@@H](O)[C@H]2O)n1 [ribavirin, reference compound]
- inhibition at 500 µg/mL [2, 6]: 39.5 ± 2%
- inhibition at 500 µg/mL [3, 7]: 36.1 ± 3.7%
- inhibition at 500 µg/mL [4, 8]: 38 ± 1.3%

SMILES: C[n+]1c2ccccc2c(NCC2CCCNC2)c2[nH]c3ccccc3c21 (stereo not shown) [Example 43]
- pest or weed control at 400 µg/mL [1, 9]: 30%
- inhibition at 500 µg/mL [2]: 26.1 ± 1%
- inhibition at 500 µg/mL [3]: 28.3 ± 0.2%
- inhibition at 500 µg/mL [4]: 30 ± 2.1%

SMILES: C[n+]1c2ccccc2c(NC2CCNC2)c2[nH]c3ccccc3c21 (stereo not shown) [Example 40]
- pest or weed control at 400 µg/mL [1, 9]: 20%
- TMV activity [2, 5]: better TMV activity than the ribavirin
- inhibition at 500 µg/mL [2]: 45.8 ± 3.8%
- inhibition at 500 µg/mL [3]: 39.5 ± 3.1%
- inhibition at 500 µg/mL [4]: 38.6 ± 2.5%

SMILES: Cc1ccc(S(=O)(=O)n2c3ccccc3c3c2cc2ccccc2[n+]3C)cc1 [Example 1]
- pest or weed control at 400 µg/mL [1, 10]: 95 ± 5%
- pest or weed control at 400 µg/mL [1, 11]: > 95%
- inhibition at 500 µg/mL [2]: 18.9 ± 2.6%
- inhibition at 500 µg/mL [3]: 20.3 ± 1.1%
- inhibition at 500 µg/mL [4]: 18.5 ± 0.6%

SMILES: C[n+]1c2ccccc2c(N2CCN(CCN)CC2)c2[nH]c3ccc(Cl)cc3c21 [Reference Example 2, reference compound]
- pest or weed control at 400 µg/mL [1, 9]: 0%
- bactericidal activity against rice sheath blight ([1]; live pot test, result in words, summary of Table 5 (400mg/L)): no activity
- inhibition at 500 µg/mL [2]: 15.2 ± 1.1%
- inhibition at 500 µg/mL [3]: 18.1 ± 0.2%
- inhibition at 500 µg/mL [4]: 15.3 ± 2.1%

SMILES: Cc1ccc(S(=O)(=O)n2c3ccc(F)cc3c3c2cc2ccccc2[n+]3C)cc1 [Example 4]
- pest or weed control at 400 µg/mL [1, 10]: 60%
- pest or weed control at 400 µg/mL [1, 11]: > 50%
- inhibition at 500 µg/mL [2]: 21.6 ± 3.4%
- inhibition at 500 µg/mL [3]: 18.6 ± 1.2%
- inhibition at 500 µg/mL [4]: 14.1 ± 1.3%

SMILES: CNCC(=O)N[C@@H](CO)C(=O)N[C@H]1[C@H](O)[C@@H](O)[C@H](n2ccc(N)nc2=O)O[C@@H]1C(N)=O [Ningnanmycin, reference compound]
- inhibition at 500 µg/mL [2]: 58.3 ± 4.1%
- inhibition at 500 µg/mL [3]: 56.9 ± 2.8%
- inhibition at 500 µg/mL [4]: 59 ± 2.2%

SMILES: Cc1ccc(S(=O)(=O)n2c3ccc(C)cc3c3c2cc2ccccc2[n+]3C)cc1 [Example 2]
- pest or weed control at 400 µg/mL [1, 10]: 40%
- inhibition at 500 µg/mL [2]: 26.5 ± 3%
- inhibition at 500 µg/mL [3]: 20.5 ± 0.9%
- inhibition at 500 µg/mL [4]: 25.3 ± 2.3%

SMILES: CCCCC(CC)CNc1c2ccccc2[n+](C)c2c1[nH]c1ccccc12 (stereo not shown) [Example 27]
- pest or weed control at 400 µg/mL [1, 9]: 30%
- antiTMV activity ([2]; 500µg/mL, compared with commercial Ningnanmycin, Table 4 (all three modes)): comparable to that of commercial Ningnanmycin
- TMV activity [2, 5]: better TMV activity than the ribavirin
- inhibition at 500 µg/mL [2]: 52.1 ± 2.8%
- inhibition at 500 µg/mL [3]: 46.3 ± 4.2%
- inhibition at 500 µg/mL [4]: 47.9 ± 1.5%

— patent publication EP4578857A1, “CRYPTOLEPINE SALT DERIVATIVE, AND PREPARATION METHOD THEREFOR AND USE THEREOF” (Nankai University, priority 2023, dated 2025)
